Results taken from patent US20260015358A1, “BICYCLIC DERIVATIVES, COMPOSITIONS AND USES THEREOF” (Danatlas Pharmaceuticals Co., Ltd., priority 2023, published 2026).

Assays:
[1] = molecular target: T1, WRN [UniPro: Q14191 (WRN_HUMAN), N500-C946] (Homo sapiens (Human), UniProt Q14191); experiment: WRN ATPase assay (ADP-Glo); format: biochemical; settings: WRN enzymatic activity assay
[2] = molecular target: T1, WRN [UniPro: Q14191 (WRN_HUMAN), N500-C946]; experiment: WRN unwinding assay (FORKF DNA, fluorescence); format: biochemical; settings: Table 14

T1 sequence (Q14191 500-946): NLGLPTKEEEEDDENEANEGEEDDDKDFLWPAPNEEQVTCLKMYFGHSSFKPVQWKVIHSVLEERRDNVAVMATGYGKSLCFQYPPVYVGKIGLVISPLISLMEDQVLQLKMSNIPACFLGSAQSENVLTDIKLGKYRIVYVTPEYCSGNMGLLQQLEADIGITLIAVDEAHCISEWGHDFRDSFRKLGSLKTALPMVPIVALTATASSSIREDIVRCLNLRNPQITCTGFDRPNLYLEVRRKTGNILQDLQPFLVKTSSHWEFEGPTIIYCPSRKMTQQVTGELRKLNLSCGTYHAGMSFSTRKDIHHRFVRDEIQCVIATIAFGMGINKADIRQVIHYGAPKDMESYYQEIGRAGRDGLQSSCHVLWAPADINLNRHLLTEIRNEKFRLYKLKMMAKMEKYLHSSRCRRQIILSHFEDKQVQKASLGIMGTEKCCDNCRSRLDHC

| IC50 [1] [nM] | IC50 [2] [nM] | SMILES |
| --- | --- | --- |
| < 100 | < 100 | CCc1c(N2CCN(C(=O)c3sc4ncccc4c3O)CC2)c(=O)n2nc(C3=CCOCC3)nc2n1CC(=O)Nc1ccc(C(F)(F)F)cc1Cl [Example 87, N-(2-Chloro-4-(trifluoromethyl)phenyl)-2-(2-(3,6-dihydro-2H-pyran-4-yl)-5-ethyl-6-(4-(3-hydroxythieno[2,3-b]pyridine-2-carbonyl)piperazin-1-yl)-7-oxo-[1,2,4]triazolo[1,5-a]pyrimidin-4(7H)-yl)acetamide] |
| < 100 | < 100 | CCc1c(N2CCN(C(=O)c3cc4c(O)ccnc4o3)CC2)c(=O)n2nc(C3=CCOCC3)nc2n1CC(=O)Nc1ccc(C(F)(F)F)cc1Cl [Example 88, N-(2-Chloro-4-(trifluoromethyl)phenyl)-2-(2-(3,6-dihydro-2H-pyran-4-yl)-5-ethyl-6-(4-(4-hydroxyfuro[2,3-b]pyridine-2-carbonyl)piperazin-1-yl)-7-oxo-[1,2,4]triazolo[1,5-a]pyrimidin-4(7H)-yl)acetamide] |
| < 100 | < 100 | CCc1c(N2CCN(C(=O)C(N)=O)CC2)c(=O)n2nc(C3=CCOCC3)nc2n1CC(=O)Nc1ccc(C(F)(F)F)cc1Cl [Example 89, 2-(6-(4-(2-Amino-2-oxoacetyl)piperazin-1-yl)-2-(3,6-dihydro-2H-pyran-4-yl)-5-ethyl-7-oxo-[1,2,4]triazolo[1,5-a]pyrimidin-4(7H)-yl)-N-(2-chloro-4-(trifluoromethyl)phenyl)acetamide] |
| < 100 | 100 to 1000 | CCc1c(N2CCN(C(=O)c3cccc4cn[nH]c34)CC2)c(=O)n2nc(C3=CCOCC3)nc2n1CC(=O)Nc1ccc(C(F)(F)F)cc1Cl [Example 90, 2-(6-(4-(1H-Indazole-7-carbonyl)piperazin-1-yl)-2-(3,6-dihydro-2H-pyran-4-yl)-5-ethyl-7-oxo-[1,2,4]triazolo[1,5-a]pyrimidin-4(7H)-yl)-N-(2-chloro-4-(trifluoromethyl)phenyl)acetamide] |
| < 100 | < 100 | CCc1c(N2CCN(C(=O)c3cnc4cc(C)cn4c3O)CC2)c(=O)n2nc(C3=CCOCC3)nc2n1CC(=O)Nc1ccc(C(F)(F)F)cc1Cl [Example 92, N-(2-Chloro-4-(trifluoromethyl)phenyl)-2-(2-(3,6-dihydro-2H-pyran-4-yl)-5-ethyl-6-(4-(4-hydroxy-7-methylpyrrolo[1,2-a]pyrimidine-3-carbonyl)piperazin-1-yl)-7-oxo-[1,2,4]triazolo[1,5-a]pyrimidin-4(7H)-yl)acetamide] |
| < 100 | < 100 | CCc1c(N2CCN(C(=O)CNC(=O)c3ccccc3)CC2)c(=O)n2nc(C3=CCOCC3)nc2n1CC(=O)Nc1ccc(C(F)(F)F)cc1Cl [Example 93, N-(2-(4-(4-(2-((2-Chloro-4-(trifluoromethyl)phenyl)amino)-2-oxoethyl)-2-(3,6-dihydro-2H-pyran-4-yl)-5-ethyl-7-oxo-4,7-dihydro-[1,2,4]triazolo[1,5-a]pyrimidin-6-yl)piperazin-1-yl)-2-oxoethyl)benzamide] |
| < 100 | < 100 | CCCC(=O)NCC(=O)N1CCN(c2c(CC)n(CC(=O)Nc3ccc(C(F)(F)F)cc3Cl)c3nc(C4=CCOCC4)nn3c2=O)CC1 [Example 94, N-(2-(4-(4-(2-((2-Chloro-4-(trifluoromethyl)phenyl)amino)-2-oxoethyl)-2-(3,6-dihydro-2H-pyran-4-yl)-5-ethyl-7-oxo-4,7-dihydro-[1,2,4]triazolo[1,5-a]pyrimidin-6-yl)piperazin-1-yl)-2-oxoethyl)butyramide] |
| < 100 | < 100 | CCc1c(N2CCN(C(=O)CNC(=O)c3ccccn3)CC2)c(=O)n2nc(C3=CCOCC3)nc2n1CC(=O)Nc1ccc(C(F)(F)F)cc1Cl [Example 95, N-(2-(4-(4-(2-((2-Chloro-4-(trifluoromethyl)phenyl)amino)-2-oxoethyl)-2-(3,6-dihydro-2H-pyran-4-yl)-5-ethyl-7-oxo-4,7-dihydro-[1,2,4]triazolo[1,5-a]pyrimidin-6-yl)piperazin-1-yl)-2-oxoethyl)picolinamide] |
| < 100 | < 100 | CCc1c(N2CCN(C(=O)CNC(=O)c3ccncc3)CC2)c(=O)n2nc(C3=CCOCC3)nc2n1CC(=O)Nc1ccc(C(F)(F)F)cc1Cl [Example 96, N-(2-(4-(4-(2-((2-Chloro-4-(trifluoromethyl)phenyl)amino)-2-oxoethyl)-2-(3,6-dihydro-2H-pyran-4-yl)-5-ethyl-7-oxo-4,7-dihydro-[1,2,4]triazolo[1,5-a]pyrimidin-6-yl)piperazin-1-yl)-2-oxoethyl)isonicotinamide] |
| < 100 | < 100 | CCc1c(N2CCN(C(=O)CNC(=O)c3ccccc3F)CC2)c(=O)n2nc(C3=CCOCC3)nc2n1CC(=O)Nc1ccc(C(F)(F)F)cc1Cl [Example 97, N-(2-(4-(4-(2-((2-Chloro-4-(trifluoromethyl)phenyl)amino)-2-oxoethyl)-2-(3,6-dihydro-2H-pyran-4-yl)-5-ethyl-7-oxo-4,7-dihydro-[1,2,4]triazolo[1,5-a]pyrimidin-6-yl)piperazin-1-yl)-2-oxoethyl)-2-fluorobenzamide] |
| < 100 | < 100 | CCc1c(N2CCN(C(=O)CNC(=O)c3ccc(F)cc3)CC2)c(=O)n2nc(C3=CCOCC3)nc2n1CC(=O)Nc1ccc(C(F)(F)F)cc1Cl [Example 98, N-(2-(4-(4-(2-((2-Chloro-4-(trifluoromethyl)phenyl)amino)-2-oxoethyl)-2-(3,6-dihydro-2H-pyran-4-yl)-5-ethyl-7-oxo-4,7-dihydro-[1,2,4]triazolo[1,5-a]pyrimidin-6-yl)piperazin-1-yl)-2-oxoethyl)-4-fluorobenzamide] |
| < 100 | < 100 | CCc1c(N2CCN(C(=O)CNC(=O)c3cccc(F)c3)CC2)c(=O)n2nc(C3=CCOCC3)nc2n1CC(=O)Nc1ccc(C(F)(F)F)cc1Cl [Example 99, N-(2-(4-(4-(2-((2-Chloro-4-(trifluoromethyl)phenyl)amino)-2-oxoethyl)-2-(3,6-dihydro-2H-pyran-4-yl)-5-ethyl-7-oxo-4,7-dihydro-[1,2,4]triazolo[1,5-a]pyrimidin-6-yl)piperazin-1-yl)-2-oxoethyl)-3-fluorobenzamide] |
| < 100 | < 100 | CCc1c(N2CCN(C(=O)CNC(=O)c3nccs3)CC2)c(=O)n2nc(C3=CCOCC3)nc2n1CC(=O)Nc1ccc(C(F)(F)F)cc1Cl [Example 100, N-(2-(4-(4-(2-((2-Chloro-4-(trifluoromethyl)phenyl)amino)-2-oxoethyl)-2-(3,6-dihydro-2H-pyran-4-yl)-5-ethyl-7-oxo-4,7-dihydro-[1,2,4]triazolo[1,5-a]pyrimidin-6-yl)piperazin-1-yl)-2-oxoethyl)thiazole-2-carboxamide] |
| < 100 | < 100 | CCc1c(N2CCN(C(=O)CNC(=O)c3ccn[nH]3)CC2)c(=O)n2nc(C3=CCOCC3)nc2n1CC(=O)Nc1ccc(C(F)(F)F)cc1Cl [Example 101, N-(2-(4-(4-(2-((2-Chloro-4(trifluoromethyl)phenyl)amino)-2-oxoethyl)-2-(3,6-dihydro-2H-pyran-4-yl)-5-ethyl-7-oxo-4,7-dihydro-[1,2,4]triazolo[1,5-a]pyrimidin-6-yl)piperazin-1-yl)-2-oxoethyl)-1H-pyrazole-5-carboxamide] |
